From paper PMC4907692, “Engineering vanilloid-sensitivity into the rat TRPV2 channel” (eLife, 2016)

Biological target: T1, 1D4-tagged WT TRPV2 (Rattus norvegicus, UniProt Q9WUD2)
T1 construct: made in house; host or cells: S. cerevisiae BJ5457, isolated membranes
T1 sequence (Q9WUD2 1-761): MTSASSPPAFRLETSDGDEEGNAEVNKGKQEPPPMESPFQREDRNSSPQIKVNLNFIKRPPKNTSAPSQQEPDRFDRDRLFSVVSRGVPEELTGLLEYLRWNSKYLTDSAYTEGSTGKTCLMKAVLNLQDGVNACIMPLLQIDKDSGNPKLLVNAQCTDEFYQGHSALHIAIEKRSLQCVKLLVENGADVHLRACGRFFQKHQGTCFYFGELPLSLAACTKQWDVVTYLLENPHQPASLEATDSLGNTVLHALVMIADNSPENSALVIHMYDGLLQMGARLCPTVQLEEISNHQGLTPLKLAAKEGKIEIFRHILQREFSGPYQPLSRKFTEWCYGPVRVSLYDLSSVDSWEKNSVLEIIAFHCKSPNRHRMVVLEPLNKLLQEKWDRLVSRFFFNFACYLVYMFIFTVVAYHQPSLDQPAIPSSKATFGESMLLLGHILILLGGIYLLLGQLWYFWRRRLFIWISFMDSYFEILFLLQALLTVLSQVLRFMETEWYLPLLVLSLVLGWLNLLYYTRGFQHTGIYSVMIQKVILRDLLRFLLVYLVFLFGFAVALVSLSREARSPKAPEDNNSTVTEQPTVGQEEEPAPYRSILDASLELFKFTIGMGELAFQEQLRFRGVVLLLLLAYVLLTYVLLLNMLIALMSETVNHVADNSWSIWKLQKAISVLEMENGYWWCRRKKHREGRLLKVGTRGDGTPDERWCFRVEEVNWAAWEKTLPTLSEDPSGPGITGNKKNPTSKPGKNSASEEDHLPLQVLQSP
Experiment: 3H-RTx binding to yeast membranes containing 1D4-tagged WT TRPV2
From the text: To examine the strength of RTx binding to the TRPV2 channel, we undertook binding assays after expressing 1D4-tagged TRPV2 and TRPV2 QM in S. cerevisiae and isolating yeast membranes, similar to the experiments described above with TRPV1 (Figure 2). […] To examine the relative importance of the four residues for mediating RTx sensitivity in the TRPV2 QM, we constructed triple mutants and evaluated their sensitivity to RTx electrophysiologically.
The full-length TRPV1 and TRPV2 channels with 1D4 affinity tags ([…]) on their C-termini were cloned into the YEpHIS vector and expressed in the BJ5457 strain of S. cerevisiae using the strong constitutively active PMA1 promoter, as previously described ([Moiseenkova-Bell et al., 2008]). After 48 hr of expression at 30°C in YPD media, cells were harvested by centrifugation and re-suspended in PBS buffer, supplemented with complete protease inhibitor cocktail (Roche, Indianapolis, IN) and 4-amidinophenylmethanesulfonyl fluoride hydrochloride (APMSF) (Sigma-Aldrich, St. Louis, MO). Cells were broken by passing through an Avestin homogenizer at the pressure of 35 kpsi, cell lysate was cleared by centrifugation at 8,000 g for 15 min and membranes were isolated by ultracentrifugation at 190,000 g for 1 hr. […]
S. cerevisiae cells overexpressing TRPV1 constructs to be used in ligand binding assays on intact cells (Figure 1E,F) were grown as for small scale expression trials. 24 hr after protein induction cells were spun down at 4000g, the supernatant was removed and the pellet resuspended in 1x PBS, normalizing OD600 to 75 for each sample, and aliquoted for storage at -80°C. ^3H-RTx binding assays on cells were performed at 37°C as previously described ([Feng et al., 2015]), but where non-specific binding of RTx was measured using cells expressing GFP alone. […] Data for binding of RTx to membranes was corrected for non-specific binding, determined using either excess non-radioactive ligand or heat inactivation of the protein, as previously described ([Feng et al., 2015]). […]

SMILES: C=C(C)[C@]12C[C@@H](C)[C@@]34O[C@](Cc5ccccc5)(O[C@@H]1[C@@H]3C=C(COC(=O)Cc1ccc(O)c(OC)c1)C[C@]1(O)C(=O)C(C)=C[C@@H]41)O2 [RTx, resiniferatoxin]
- RTx binding in words: weak binding
- Hill slope (nH) (37°C): 0.9
- Kd (37°C, read-out: Kd of 3H-RTx binding (Hill fit)): > 200 nM
